Assay [1] relates to Reniform Nematode (Rotylenchulus reniformis). Nature of the assay: Reniform Nematode efficacy on soybean, soil nematode count compared to check. In kind it is in vivo.
Assay [2] has as its system Root Knot Nematode (Meloidogyne incognita) eggs. Briefly: Evaluation of Root Knot Nematode egg hatch. In kind it is cell-based.
Assay [3] deals with Soybean Cyst Nematode (Heterodera glycines) eggs. Nature of the assay: Evaluation of Soybean Cyst Nematode egg hatch. Format: cell-based.
The test system of assay [4] is Soybean Cyst Nematode (Heterodera glycines). Nature of the assay: Control of Heterodera glycines on soybean in a greenhouse, seed treatment. In kind it is in vivo. The text has this:
Methodology for evaluating control of Heterodera glycines at all life stages on soybean in a greenhouse.
Five thousand Heterodera glycine eggs where placed in a 1 inch hole in the center of 3.5 inch×8 inch deep plastic pots. The seeds were inoculated first when applying the active compound as a seed treatment. The treated seed was placed in the center hole and covered up with sterilized top soil. Each pot was watered by hand, with approximately 50 mls of water applied to each pot once per day. 35 day after planting, the soil was gently rinsed from the roots of the emerged plants and place in a 20 mesh over a 60-mesh sieve. The root system was blasted with water to remove mature females. The 20-mesh sieve removed. The females were washed to the bottom of the 60-mesh sieve and rinsed into a tube for counting under a stereoscope. For root penetration experiments, the roots of the plants were removed from the pots at 7-14 days after planting, rinsed clean of soil, and stained with acid fuchsin stain. Stained nematodes in the roots were counted using an electronic stereoscope.
The action of pydiflumetofen against soybean syst nematode (SCN; Heterodera glycines) and its effect on soybean plants was assessed out as described previously, and compared to that of fluopyram. The number of SCN per stained root was counted, and the mean root weight per plant calculated, thus enabling the number of SCN per gram of root to be calculated.

Assay [5] deals with Soybean Cyst Nematode (Heterodera glycines) on Soybean. Briefly: Soybean yield data, seed treatment (trials 4-6). Format: in vivo.
In assay [6] the test system is Lesion Nematode (Pratylenchus Spp.). Briefly: Lesion Nematode control in corn, stained root tissue. Format: in vivo. The text has this:
Corn root tissue was stained using acid fuchsin/methyl blue to assess for endoparasitic, endo/ectoparasitic, and semi endoparasitic nematodes that have entered the root system, using standard methodology. The effect of pydiflumetofen was compared to fluopyram.

The subject of assay [7] is Root Knot Nematode (Meloidogyne incognita). Briefly: Root Knot Nematode control on soybean, gall count and rating. In kind it is in vivo. The text has this:
Root Knot Nematode (Meloidogyne incognita) Methodology for Evaluating Root Knot Nematode Gall Count and Rating Process The roots of the plants were removed from the soil. The root system was then sprayed with water to remove remaining soil. The roots were spread out on a tray or counter top and the rate of galling or place each root system under a magnification light and count galls. For gall assessment ratings, a rating on a scale of 0-10 scale was given when compared against a standard gall rating chart. Gall count was also assessed.

Another assay concerns Lance (Hoplolaimus Spp.). Nature of the assay: In vitro dose response assay against Lance nematode. In kind it is cell-based. The text has this: (§1) Lance (Hoplolaimus Spp.) and Sting (Belonolaimus longicaudatus) Nematode In Vitro Assay Measuring Dose Response of APN Against Sting and Lance Nematode.
Assay [8] relates to Lesion Nematode (Pratylenchus brachyurus). Nature of the assay: Lesion Nematode efficacy on soybean, stained roots. Format: in vivo. The text has this:
Soybean plant roots were stained using acid fuchsin/methyl blue to assess for endoparasitic, endo/ectoparasitic, and semi endoparasitic nematodes that have entered the root system, using standard methodology.

Assay [9] deals with Sting (Belonolaimus longicaudatus). Nature of the assay: In vitro dose response assay against Sting nematode. Format: cell-based.
Source text: as §1

In assay [10] the test system is Spiral (Helicotylenchus Spp.). Briefly: Multiple nematode species on cotton, soil counts: Spiral. Format: in vivo. The conditions noted are these: 0.15 mg ai/seed, measured 71 days after planting.
Assay [11] deals with Reniform Nematode (Rotylenchulus reniformis). Briefly: Multiple nematode species on cotton, soil counts: Reniform. Format: in vivo. The conditions noted are these: 0.15 mg ai/seed, measured 71 days after planting.
Assay [12] has as its system Root Knot (Meloidogyne incognita). Nature of the assay: Multiple nematode species on cotton, soil counts: Root Knot. In kind it is in vivo. The conditions noted are these: 0.15 mg ai/seed, measured 71 days after planting.
Setting [13] is: Series 2 Trial 1, 0.075 mg ai/seed.
Setting [14] is: Series 2 Trial 1, 0.15 mg ai/seed.
[15] abbreviates: Series 2 Trial 1, 0.30 mg ai/seed.
[16] abbreviates: Series 1 Trial 1, 0.0375 mg ai/seed.
[17] abbreviates: Series 1 Trial 1, 0.075 mg ai/seed.
Setting [18] is: Series 1 Trial 1, 0.15 mg ai/seed.
Setting [19] is: Series 1 Trial 2, 0.075 mg ai/seed.
Where [20] appears, read: Series 1 Trial 2, 0.15 mg ai/seed.
Where [21] appears, read: Sodium hypochlorite 30%, no ppm concentration printed.

The record followed here is patent US12369583B2, “Nematicidal compositions” (SYNGENTA CROP PROTECTION AG, priority 2018, dated 2025).

`CNC(=O)O/N=C/C(C)(C)SC` [Aldicarb]: the “Nematode Reduction Compared to Check (mean difference in soil nematode count)” value in assay [1] (in-furrow (5.6 Kg/Ha)) is −1937.
With `O=S(=O)(CCC(F)=C(F)F)c1ncc(Cl)s1` [Fluensulfone], the “Percent Egg Hatch Reduction” value in assay [2] (1 ppm) was −3.5%; in assay [2] (10 ppm), −0.9%; in [2] (100 ppm), 48.8%; in assay [3] (1 ppm) it was −2.1%; in assay [3] (10 ppm) it was −1.5%; in [3] (100 ppm), 0.5%.
As for `O=C(NCCc1ncc(C(F)(F)F)cc1Cl)c1ccccc1C(F)(F)F` [Fluopyram, reference compound], the “Nematode Reduction Compared to Check (mean difference in soil nematode count)” value in [1] (0.15 mg/seed) is −3146. Also, the “Mean SCN/root” value came out at 20.8 in assay [4] (setting [13]), 17.7 in assay [4] (setting [14]) and 7.3 in [4] (setting [15]). Further, the “No. SCN/g root tissue” value came out at 12.1 in assay [4] (setting [13]), 30.3 in [4] (setting [14]) and 23.4 in assay [4] (setting [15]). Besides, the “Percent Egg Hatch Reduction” value is 1.1% in assay [2] (1 ppm); 55.9% in assay [2] (10 ppm); 54.7% in assay [2] (100 ppm); −1.3% in assay [3] (1 ppm); 4.5% in assay [3] (10 ppm); 61.9% in [3] (100 ppm). For the same compound, the “Mean Difference in Yield Compared to Checks” value in assay [5] (Trial 4, 0.15 mg ai/seed) is −3.5 Bu/Ac; in assay [5] (Trial 5, 0.15 mg ai/seed), “+5.4 Bu/Ac”; in assay [5] (Trial 6, 0.15 mg ai/seed), “+2.9 Bu/Ac”. Moreover, the “Lesion Nematode per gram of Root” value in assay [6] (0.25 mg ai/seed) is reported as 211. Moreover, the “Lesion Nematodes within root system” value in [6] (0.25 mg ai/seed) came to 108.
`CON(C(=O)c1cn(C)nc1C(F)F)C(C)Cc1c(Cl)cc(Cl)cc1Cl` (centres unmarked) [Pydiflumetofen, 3-(difluoromethyl)-N-methoxy-1-methyl-N-[1-methyl-2-(2,4,6-trichloro-phenyl)ethyl]-1H-pyrazole-4-carboxamide]: the “Root Knot Nematode Galling (0-10 scale)” value in [7] (0.075 mg ai/seed) was 6.8; in assay [7] (0.15 mg ai/seed), 1.5. The “Root Knot Nematode Galls per Root” value in [7] (0.075 mg ai/seed) was 52.6; in [7] (0.15 mg ai/seed), 11.2. Further, in assay [1] (0.075 mg/seed), the “Nematode Reduction Compared to Check (mean difference in soil nematode count)” value was −2912. Besides, the “Percentage of Dead Nematodes” value in the assay on Lance (Hoplolaimus Spp.) (exposure 1 hours, 0.1 ppm) is given as 12.7 Percentage; with Lance (Hoplolaimus Spp.) (exposure 1 hours, 10 ppm), 37.9 Percentage; in the assay with Lance (Hoplolaimus Spp.) (exposure 1 hours, 100 ppm), 74.8 Percentage; with Lance (Hoplolaimus Spp.) (exposure 24 hours, 0.1 ppm) it was 68.5 Percentage; in the assay on Lance (Hoplolaimus Spp.) (exposure 24 hours, 10 ppm) it was 81.6 Percentage; in the assay with Lance (Hoplolaimus Spp.) (exposure 24 hours, 100 ppm), 23.9 Percentage. In addition, the “Percentage of Dead Nematodes” value with Lance (Hoplolaimus Spp.) (exposure 48 hours, 0.1 ppm) was 41 d Percentage; in the assay with Lance (Hoplolaimus Spp.) (exposure 48 hours, 10 ppm) it was 93.8 Percentage; in the assay with Lance (Hoplolaimus Spp.) (exposure 48 hours, 100 ppm), 74.8 Percentage; in the assay on Lance (Hoplolaimus Spp.) (exposure 72 hours, 0.1 ppm) it was 32.9 Percentage; in the assay with Lance (Hoplolaimus Spp.) (exposure 72 hours, 10 ppm), 93.8 Percentage; in the assay with Lance (Hoplolaimus Spp.) (exposure 72 hours, 100 ppm) it was 77.5 Percentage. For the same compound, the “Percentage of Dead Nematodes” value is 6.3 Percentage in assay [9] (exposure 1 hours, 0.1 ppm); 5.9 Percentage in assay [9] (exposure 1 hours, 10 ppm); 11.3 Percentage in [9] (exposure 1 hours, 100 ppm); 4.7 Percentage in [9] (exposure 24 hours, 0.1 ppm); 59.5 Percentage in assay [9] (exposure 24 hours, 10 ppm); 42.9 Percentage in assay [9] (exposure 24 hours, 100 ppm). The “Percentage of Dead Nematodes” value amounted to 29.3 Percentage in assay [9] (exposure 48 hours, 0.1 ppm); 56.3 Percentage in [9] (exposure 48 hours, 10 ppm); 58 Percentage in [9] (exposure 48 hours, 100 ppm); 34.9 Percentage in assay [9] (exposure 72 hours, 0.1 ppm); 81.1 Percentage in assay [9] (exposure 72 hours, 10 ppm); 97.1 Percentage in [9] (exposure 72 hours, 100 ppm). The “Lesion Nematode per gram of Root” value in assay [8] (0.0375 mg ai/seed) was 164.3; in [8] (0.075 mg ai/seed), 141.5; in assay [8] (0.15 mg ai/seed), 105.3; in assay [6] (0.4 mg ai/seed), 389; in assay [6] (0.5 mg ai/seed), 105. Moreover, the “Lesion Nematodes w/l root” value in [8] (0.0375 mg ai/seed) amounted to 44.9; in assay [8] (0.075 mg ai/seed) it was 38.3; in [8] (0.15 mg ai/seed) it was 32.3. For the same compound, the “Cysts per Gram of Root” value in [4] (setting [16]) stood at 147.9; in [4] (setting [17]), 167.5; in [4] (setting [18]) it was 105.0. Moreover, the “Mature SCN Cysts” value in assay [4] (setting [16]) is reported as 24.0; in assay [4] (setting [17]), 21.3; in assay [4] (setting [18]) it was 16.3. In addition, the figures for the “Stained Juveniles w/l root” value in [4] (setting [16]), in assay [4] (setting [17]) and in [4] (setting [18]) were 22.5, 19.0 and 12.5, respectively. Besides, the entries for the “SCN Within Root” value in assay [4] (setting [19]) and in assay [4] (setting [20]) were 17.5 and 5.0, respectively. The “Soybean Cyst Nematodes per Gram of Root” value in assay [4] (setting [19]) is listed as 128; in assay [4] (setting [20]), 29.6. For the same compound, the “SCN Cysts per Root” value in assay [4] (Series 1 Trial 3, 0.15 mg ai/seed) came to 10.4; in assay [4] (Series 1 Trial 3, 0.30 mg ai/seed), 5.5. The “Mean SCN/root” value in [4] (setting [13]) is reported as 52.3; in assay [4] (setting [14]), 37.0; in assay [4] (setting [15]), 35.2. In addition, the figures for the “No. SCN/g root tissue” value in assay [4] (setting [13]), in assay [4] (setting [14]) and in assay [4] (setting [15]) were 30.4, 16.9 and 15.2, respectively. Also, the “Juveniles per 100 cc s Soil” value in assay [10] is given as 254; in [11] (Reniform (adult)), 2.8; in assay [11] (Reniform (juvenile)), 1752; in [12] it was 132. Further, the “Percent Egg Hatch Reduction” value in assay [2] (1 ppm) is on record as 1.7%; in assay [2] (10 ppm), 12.8%; in [2] (100 ppm), 30.6%; in [3] (1 ppm) it was 4.7%; in [3] (10 ppm), 34.7%; in [3] (100 ppm), 64.0%. The “Mean Difference in Yield Compared to Checks” value in assay [5] (Trial 4, 0.075 mg ai/seed) is “+3.0 Bu/Ac”; in assay [5] (Trial 5, 0.075 mg ai/seed), “+3.7 Bu/Ac”; in assay [5] (Trial 6, 0.075 mg ai/seed), “+7.5 Bu/Ac”. The “Effect on nematode numbers (in words)” value in assay [6] is listed as “reduce nematode numbers”. For the same compound, the “Lesion Nematodes within root system” value in [6] (0.4 mg ai/seed) is given as 302; in [6] (0.5 mg ai/seed), 124.
Turning to `OCl` [Sodium hypochlorite 30%, Sodium hypochlorite], the “Percent Egg Hatch Reduction” value in [2] (setting [21]) and in assay [3] (setting [21]) was 100.0% throughout.
Regarding `c1ccc(-c2noc(-c3cccs3)n2)cc1` [Tioxazafen], the “Percent Egg Hatch Reduction” value in assay [2] (1 ppm) is listed as −1.9%; in assay [2] (10 ppm) it was −0.8%; in assay [2] (100 ppm), 4.4%; in [3] (1 ppm), 0.4%; in assay [3] (10 ppm), −0.5%; in assay [3] (100 ppm), −0.9%.
